From patent publication US8236820B2, “Anti-inflammatory compounds and uses thereof” (priority 2007, dated 2012)
Like-named read-outs stand apart in the source and are kept apart here.

Assays:
SW480 = assay: Cell viability (MTT) assay, 24-h IC50, SW480; assay type: cell-based, human
MDA-MB231 = assay: Cell viability (MTT) assay, 24-h IC50, MDA-MB231; assay type: cell-based, human
BxPC-3 = assay: Cell viability (MTT) assay, 24-h IC50, BxPC-3
Procedure: Cells were incubated at 37° C. in 5% CO2. Cells were seeded at 5.5×10^4 cells/cm^2, allowed to attach overnight, and the following morning cells were treated with each of the test compounds.
Cell viability assay: We used an assay based on the reduction of 3-(4,5-dimethylthiazol-2-yl)-2,5-diphenyltetrazolium bromide dye (MTT), which was determined according to the manufacture's protocol (Promega, Madison, Wis., USA).

HT29 = assay: Cell viability (MTT) assay, 24-h IC50, HT29; assay type: cell-based, human
MIA-PaCa-2 = assay: Cell viability (MTT) assay, 24-h IC50, MIA-PaCa-2; assay type: cell-based, human
MCF-7 = assay: Cell viability (MTT) assay, 24-h IC50, MCF-7; assay type: cell-based, human
[1] = tested on: MDA-MB 231 human breast cancer cells; assay: Cell proliferation assay (BrdU incorporation) in MDA-MB231; assay type: cell-based; conditions: MDA-MB231, each compound at its IC50 concentration
From the text: Cell proliferation assay: To determine cell proliferation, we measured the incorporation of 5-bromo-2′-deoxyuridine (BrdU) into newly synthesized cellular DNA, following the manufacture's instructions (BD Biosciences, San Jose, Calif.).
(§1) As summarized in Table 2 below, in MDA-MB231 cells, all six compounds, each used at its IC50 concentration, a) inhibited cell proliferation between 6% and 50% compared to controls; b) induced both early and late apoptosis, as well as necrosis; and c) inhibited the G1 to S cell cycle phase transition. In this Table, the values for proliferation are the percentage of the corresponding control values. Those for apoptosis and necrosis refer to the percentage of cells in each category with respect to the entire cell population, and are to be compared to the control (vehicle only-treated) cells (uppermost row).

[2] = tested on: MDA-MB 231 human breast cancer cells; assay: Annexin V and propidium iodide staining in MDA-MB231; assay type: cell-based; conditions: MDA-MB231, compound at its IC50, 24 h; for Necrosis (%): % of entire cell population (control 0.6); for Early apoptosis (%): % of entire cell population (control 1.4); for Late apoptosis (%): % of entire cell population (control 2.0)
Procedure: Annexin V and propidium iodide (PI) staining: Cells were seeded at a density of 1×10^5 cells/well and treated for 24 h with various concentrations of each compound or equivalent volumes of DMSO. Briefly, after incubation with the test compounds, cells were trypsinized and stained with Annexin V-FITC (Invitrogen) and PI (0.5 μg/ml). Following incubation at room temperature for 15 min in the dark, annexin V-FITC and PI fluorescence intensities were analyzed by FACScaliber (BD Bioscience). Annexin V (+)/PI (−) cells are in early apoptosis, annexin V (+)/PI (+) cells are in late apoptosis (secondary necrosis), and annexin V (−)/ PI (+) cells are necrotic cells.
as §1

[3] = assay type: in vivo; conditions: 5 days oral gavage; phospho-sulindac I 317 mg/kg/d, sulindac 200 mg/kg/day; 8 mice/group
Procedure: Phospho-sulindac I lacked gastrointestinal toxicity in mice; gastrointestinal toxicity is the major side effect of sulindac as well as of the entire class of NSAIDs. We evaluated in mice the potential toxicity of phospho-sulindac I. Three groups, each consisting of 8 female C57BL/6J+/+mice 6 wks of age, were treated for 5 days by oral gavage with equimolar amounts of phospho-sulindac I (317 mg/kg/d) or conventional sulindac (200 mg/kg/day) or vehicle. Mice were weighed at time 0 and on days 3 and 5. Mice surviving to the end of the study were euthanized and necropsied.
The stomachs of sulindac-treated animals were larger than those of the other two groups and in some the liver appeared hyperemic.

APC^Min/+ mice = conditions: literature (Yang et al. 2003); cited from earlier work
[4] = tested on: spermidine/spermine N^1-acetyltransferase (SSAT); assay: SSAT enzymatic activity in HT-29 cells; assay type: cell-based, human; conditions: HT-29, 24 h; phospho-sulindac I 85 μM; P<0.05 versus control
Procedure: (§2) SW480 cells were incubated without or with phospho-sulindac I (P-S) for up to 24 h and SSAT activity was determined at each time point by determining the amount of labelled N1-acetylspermidine synthesized from [^14C]acetyl-CoA and unlabeled spermidine.
(§3) The effect of phospho-sulindac I on polyamines is mediated, at least in part, by activation of SSAT by phospho-sulindac I. It is known that conventional sulindac induces SSAT activity (Babbar et al., Cyclooxygenase-independent induction of apoptosis by sulindac sulfone is mediated by polyamines in colon cancer. J Biol Chem 2003; 278(48):47762-75.). Incubation of HT-29 and SW480 cells with 85 μM phospho-sulindac I for 24 h leads to a 3- and 4.4-fold increase of SSAT activity (P<0.05 versus control), respectively. On the other hand, incubation with sulindac led to a 1.5 and 2.5-fold increase of SSAT activity (P<0.05 versus control) in HT-29 and SW480 cells, respectively.

[5] = tested on: spermidine/spermine N^1-acetyltransferase (SSAT); assay: SSAT enzymatic activity in SW480 cells; assay type: cell-based, human; conditions: SW480, 24 h; phospho-sulindac I 85 μM; P<0.05 versus control
Procedure: as §2, §3

[6] = Homo sapiens, SW480 colon cancer cells, 24 h, read-out: 24-h IC50
[7] = Homo sapiens, MDA-MB-231, MDA-MB231 breast cancer cells, 24 h, read-out: 24-h IC50
[8] = Homo sapiens, BXPC-3, 24 h, read-out: 24-h IC50
[9] = Homo sapiens, HT-29, HT29 colon cancer cells, 24 h, read-out: 24-h IC50
[10] = Homo sapiens, MIA-PaCa-2 pancreatic cancer cells, 24 h, read-out: 24-h IC50
[11] = Homo sapiens, MCF7, MCF-7 breast cancer cells, 24 h, read-out: 24-h IC50
[12] = Homo sapiens, BXPC-3, 24 h, read-out: IC50 (growth of human cancer cells)
[13] = SW480 colon cancer cells, 24 h, read-out: 24-h IC50
[14] = MDA-MB231 breast cancer cells, 24 h, read-out: 24-h IC50
[15] = read-out: 24-h IC50, BxPC-3 pancreatic cancer cells, 24 h
[16] = HT29 colon cancer cells, 24 h, read-out: 24-h IC50
[17] = MIA-PaCa-2 pancreatic cancer cells, 24 h, read-out: 24-h IC50
[18] = MCF-7 breast cancer cells, 24 h, read-out: 24-h IC50
[19] = Homo sapiens, SW480, 24 h, read-out: 24-h IC50
[20] = Homo sapiens, MDA-MB-231, 24 h, read-out: 24-h IC50
[21] = Homo sapiens, HT-29, 24 h, read-out: 24-h IC50
[22] = Homo sapiens, MIA PaCa-2, 24 h, read-out: 24-h IC50
[23] = Homo sapiens, MCF7, 24 h, read-out: 24-h IC50

Row | IC50 (SW480; [6]) [µM] | IC50 (MDA-MB231; [7]) [µM] | IC50 (HT29; [9]) [µM] | IC50 (MIA-PaCa-2; [10]) [µM] | IC50 (MCF-7; [11]) [µM] | Structure (SMILES) | IC50 (BxPC-3; [8]) [µM] | Proliferation (% control) [1] [% control] | Necrosis (%) [2] [%] | Early apoptosis (%) [2] [%] | Late apoptosis (%) [2] [%] | other results
1 | > 2000 | > 2000 | 4000 | > 2000 | > 2000 | CC(=O)Oc1ccccc1C(=O)O [Aspirin, acetylsalicylic acid, reference compound] | > 2000 |  |  |  |  | 
2 |  |  |  |  |  | CCCC(CCC)C(=O)O [VPA, Valproic acid, reference compound] |  |  |  |  |  | IC50 (SW480; Homo sapiens, Table 3, SW480, 24-h IC50, read-out: IC50 (growth of human cancer cells)): 3640 µM; IC50 (MDA-MB231; Homo sapiens, MDA-MB-231, Table 3, MDA-MB231, 24-h IC50, read-out: IC50 (growth of human cancer cells)): 4050 µM; IC50 (BxPC-3; [12]): 1680 µM; IC50 (HT29; Homo sapiens, Table 3, HT-29, 24-h IC50, read-out: IC50 (growth of human cancer cells)): 3210 µM; IC50 (MIA-PaCa-2; Homo sapiens, MIA PaCa-2, Table 3, MIA PaCa2, 24-h IC50, read-out: IC50 (growth of human cancer cells)): 3080 µM; IC50 (MCF-7; Homo sapiens, MCF7, Table 3, MCF-7, 24-h IC50, read-out: IC50 (growth of human cancer cells)): 1780 µM
3 |  |  |  |  |  | CCOP(=O)(OCC)OCC(COC(=O)c1ccccc1OC(C)=O)OP(=O)(OCC)OCC (stereo not drawn) [Glycero-phospho-aspirin II] |  | 52 | 0.4 | 2.4 | 2.2 | IC50 (SW480; [13]): 170 µM; IC50 (MDA-MB231; [14]): 360 µM; IC50 (BxPC-3; [15]): 38 µM; IC50 (HT29; [16]): 40 µM; IC50 (MIA-PaCa-2; [17]): 242 µM; IC50 (MCF-7; [18]): 248 µM
4 |  |  |  |  |  | CCOP(=O)(OCC)OCCCCOC(=O)C(C)c1ccc(CC(C)C)cc1 (stereo not drawn) [Phospho-Ibuprofen] | 53 | 50 | 5.6 | 7.4 | 43.2 | IC50 (SW480; [19]): 75 µM; IC50 (MDA-MB231; [20]): 28 µM; IC50 (HT29; [21]): 82 µM; IC50 (MIA-PaCa-2; [22]): 104 µM; IC50 (MCF-7; [23]): 79 µM
5 |  |  |  |  |  | CCOP1(=O)OCC(COC(=O)c2ccccc2OC(C)=O)O1 (stereo not drawn) [Glycero-phospho-aspirin I] |  | 94 | 0.3 | 4.8 | 3.2 | IC50 (SW480; [13]): 169 µM; IC50 (MDA-MB231; [14]): 199 µM; IC50 (BxPC-3; [15]): 63 µM; IC50 (HT29; [16]): 54 µM; IC50 (MIA-PaCa-2; [17]): 303 µM; IC50 (MCF-7; [18]): 32 µM
6 |  |  |  |  |  | CCOP(=O)(OCC)OCCCCOC(=O)CC1=C(C)/C(=C/c2ccc(SC)cc2)c2ccc(F)cc21 [Phospho-sulindac II] | 32 | 52 | 2.6 | 5.0 | 23.2 | IC50 (SW480; [19]): 73 µM; IC50 (MDA-MB231; [20]): 18 µM; IC50 (HT29; [21]): 70 µM; IC50 (MIA-PaCa-2; [22]): 92 µM; IC50 (MCF-7; [23]): 38 µM
7 |  |  |  |  |  | CCCC(CCC)C(=O)Oc1ccc(COP(=O)(OCC)OCC)cc1 [Phosoho-VPA] |  |  |  |  |  | IC50 (SW480; Homo sapiens, SW480, 24 h, read-out: IC50 (growth of human cancer cells)): 59 µM; IC50 (MDA-MB231; Homo sapiens, MDA-MB-231, 24 h, read-out: IC50 (growth of human cancer cells)): 30 µM; IC50 (BxPC-3; [12]): 36 µM; IC50 (HT29; Homo sapiens, HT-29, 24 h, read-out: IC50 (growth of human cancer cells)): 13 µM; IC50 (MIA-PaCa-2; Homo sapiens, MIA PaCa-2, 24 h, read-out: IC50 (growth of human cancer cells)): 89 µM; IC50 (MCF-7; Homo sapiens, MCF7, 24 h, read-out: IC50 (growth of human cancer cells)): 51 µM
8 | 1060 | 748 | 1550 | 1280 | 1230 | CC(C)Cc1ccc(C(C)C(=O)O)cc1 (stereo not drawn) [Ibuprofen, ibuprofen, reference compound] | 1060 |  |  |  |  | 
9 | 1220 | 823 | 1670 | 1270 | 1430 | CC(C(=O)O)c1ccc(-c2ccccc2)c(F)c1 (stereo not drawn) [Flurobiprofen, flurbiprofen, reference compound] | 825 |  |  |  |  | 
10 |  |  |  |  |  | CCOP(=O)(OCC)OCCCCOC(=O)C(C)c1ccc(-c2ccccc2)c(F)c1 (stereo not drawn) [Phospho-Flurobiprofen] | 34 | 42 | 1.7 | 5.3 | 20.6 | IC50 (SW480; [19]): 104 µM; IC50 (MDA-MB231; [20]): 17 µM; IC50 (HT29; [21]): 80 µM; IC50 (MIA-PaCa-2; [22]): 135 µM; IC50 (MCF-7; [23]): 65 µM

Row | Structure (SMILES) | IC50 (SW480; [6]) [µM] | IC50 (MDA-MB231; [7]) [µM] | IC50 (HT29; [9]) [µM] | IC50 (MIA-PaCa-2; [10]) [µM] | IC50 (MCF-7; [11]) [µM] | IC50 (BxPC-3; [8]) [µM] | Proliferation (% control) [1] [% control] | Necrosis (%) [2] [%] | Early apoptosis (%) [2] [%] | Late apoptosis (%) [2] [%] | other results
11 | CC1=C(CC(=O)O)c2cc(F)ccc2C1=Cc1ccc([S+](C)[O-])cc1 (stereo not drawn) [Sulindac, 2-[6-fluoro-2-methyl-3-[(4-methylsulfinylphenyl)methylidene]inden-1-yl]-acetic acid, reference compound] | 900 | 530 | 1170 | 1040 | 1130 | 489 |  |  |  |  | mortality [3]: 75%; effect on formation of tumors in the colon of Min mice (APC^Min/+ mice): stimulates the formation of tumors in the colon; increase of SSAT activity [4]: 1.5 fold; increase of SSAT activity [5]: 2.5 fold
